Holding throughout (test): Minimal inhibitory concentration (MHK) on DST agar
What all share (type): cell-based

The test system of one assay is Prot. mirabilis 2117*. As to conditions: Proteus mirabilis, Prot. mirabilis 2117* (ß-Lactamase producing). The source says: (§1) Die minimalen Hemmkonzentrationen (MHK) der (4S,5S,6S)--6-[(R)-1-Hydroxyäthyl]-4-methoxy-7-oxo -1-azabicyclo-[3.2.0]hept-2-en-2-carbonsäure (Verbindung A), der (4R,5S,-6S)-6-[(R)-1-Hydroxyäthyl]-3-[[(S)-1-(1-iminoäthyl) -3-pyrrolidinyl]thio]-4-methoxy-7-oxo -1-azabicyclo[3.2.0]-hept-2-en -2-carbonsäure (Verbindung B), der (4R.5S,6S)-4--Aethoxy-6-[(R)-1-hydroxyäthyl]-3-[(S) -3-pyrrolidinyl- thio]-7-oxo-1-azabicyclo[3.2.0]hept-2-en -2-carbonsäure (Verbindung C) und der (4R,5S,6S)-4-Aethoxy-6-[(R)-1--hydroxyäthyl]-3-[[(S)-1 -(1-iminoäthyl)-3-pyrrolidinyl]-thio]-7-oxo-1 -azabicyclo[3.2.0]hept-2-en-2-carbonsäure (Verbindung D) gegen eine Reihe pathogener Mikroorganismen wurden auf DST-Agar (Diagnostic Sensitivity Test Agar) bestimmt. Die erhaltenen Resultate sind in der nachfolgenden Tabelle aufgeführt:
(§2) Die ß-Lactamase produzierenden Organismen sind mit einem ^* bezeichnet.

The test system of a further assay is Klebs. aerogenes 1082E*. As to conditions: Klebsiella aerogenes, Klebs. aerogenes 1082E* (ß-Lactamase producing).
Text: as §1, §2

Assay [1] has as its system Enterobacter cloacae 15M*. The note with it: Enterobacter cloacae 15M* (ß-Lactamase producing).
Text: as §1, §2

For assay [2], the system named is Acinetobacter anitr. 5I-156. As to conditions: ANITR.5I156.
Text: as §1, §2

The next assay relates to Prot. vulgaris 1028*. The note with it: Proteus vulgaris, Prot. vulgaris 1028* (ß-Lactamase producing).
Text: as §1, §2

For assay [3], the system named is Serratia marcescens 69438.
Text: as §1, §2

The subject of another assay is Staph. aureus 6538. The note with it: Staphylococcus aureus.
Text: as §1, §2

The subject of another assay is Prot. mirabilis 29H. As to conditions: Proteus mirabilis.
Text: as §1, §2

The subject of a further assay is Staph. aureus 887*. As to conditions: Staphylococcus aureus, Staph. aureus 887* (ß-Lactamase producing).
Text: as §1, §2

A further assay deals with Salmonella typh. BA.
Text: as §1, §2

In a further assay the test system is Strept. faecalis 6. As to conditions: Enterococcus faecalis.
Text: as §1, §2

The subject of a further assay is E. coli 1346. As to conditions: Escherichia coli.
Text: as §1, §2

Assay [4] concerns Serratia marcescens 803/15*. As to conditions: Serratia marcescens 803/15* (ß-Lactamase producing).
Text: as §1, §2

Another assay concerns Pseudomonas aer. BA*. As to conditions: Pseudomonas aer. BA* (ß-Lactamase producing).
Text: as §1, §2

Assay [5] deals with Enterobacter cloacae 908*. The note with it: Enterobacter cloacae 908* (ß-Lactamase producing).
Text: as §1, §2

Another assay has as its system Klebs. pneumoniae 418*. The note with it: Klebsiella pneumoniae, Klebs. pneumoniae 418* (ß-Lactamase producing).
Text: as §1, §2

For another assay, the system named is Pseudomonas aer. 1559E*. The note with it: Pseudomonas aer. 1559E* (ß-Lactamase producing).
Text: as §1, §2

The test system of a further assay is E. coli 1527 E*. As to conditions: Escherichia coli, E. coli 1527 E* (ß-Lactamase producing).
Text: as §1, §2

The test system of a further assay is E. coli 25922. As to conditions: Escherichia coli.
Text: as §1, §2

For the next assay, the system named is E. coli TEM 1*. As to conditions: Escherichia coli, read-out: MHK.
Text: as §1, §2

The results in this text go back to patent publication EP0170019A1, “Carbapenems having an ether group at position 4” (F. HOFFMANN-LA ROCHE & CO. Aktiengesellschaft, priority 1984, dated 1986).

≈ marks a conversion by molar mass, not a printed value.

On to `CO[C@H]1C=C(C(=O)O)N2C(=O)[C@H]([C@@H](C)O)[C@@H]12` [Verbindung A, (4S,5S,6S)--6-[(R)-1-Hydroxyäthyl]-4-methoxy-7-oxo-1-azabicyclo-[3.2.0]hept-2-en-2-carbonsäure], for which the MIC was 4 µg/mL (≈ 17.6 µM) in the assay on Prot. mirabilis 2117*; 1 µg/mL (≈ 4.4 µM) against Klebs. aerogenes 1082E*; 1 µg/mL (≈ 4.4 µM) in assay [1]; 2 µg/mL (≈ 8.8 µM) in assay [2]; 4 µg/mL (≈ 17.6 µM) in the assay with Prot. vulgaris 1028*; 2 µg/mL (≈ 8.8 µM) in assay [3]. For the same molecule, the MIC in the assay on Staph. aureus 6538 stood at 0.5 µg/mL (≈ 2.2 µM); against Prot. mirabilis 29H, 8 µg/mL (≈ 35.2 µM); in the assay on Staph. aureus 887*, 1 µg/mL (≈ 4.4 µM); in the assay on Salmonella typh. BA, 1 µg/mL (≈ 4.4 µM); in the assay with Strept. faecalis 6 it was 32 µg/mL (≈ 141 µM); against E. coli 1346, 0.5 µg/mL (≈ 2.2 µM). Also, the MIC was 2 µg/mL (≈ 8.8 µM) in assay [4]; 32 µg/mL (≈ 141 µM) against Pseudomonas aer. BA*; 1 µg/mL (≈ 4.4 µM) in assay [5]; 0.5 µg/mL (≈ 2.2 µM) against Klebs. pneumoniae 418*; above 32 µg/mL against Pseudomonas aer. 1559E*; 0.5 µg/mL (≈ 2.2 µM) in the assay with E. coli 1527 E*. Besides, the MIC with E. coli 25922 and with E. coli TEM 1* was 1 µg/mL (≈ 4.4 µM) each time.

In the case of `CO[C@H]1C(S[C@H]2CCN(C(C)=N)C2)=C(C(=O)O)N2C(=O)[C@H]([C@@H](C)O)[C@@H]12` [Verbindung B, (4R,5S,-6S)-6-[(R)-1-Hydroxyäthyl]-3-[[(S)-1-(1-iminoäthyl) -3-pyrrolidinyl]thio]-4-methoxy-7-oxo-1-azabicyclo[3.2.0]-hept-2-en-2-carbonsäure], the MIC in the assay on Prot. mirabilis 2117* worked out at 12.5 µg/mL (≈ 33.8 µM); against Klebs. aerogenes 1082E* it was 0.8 µg/mL (≈ 2.17 µM); in assay [1], 0.8 µg/mL (≈ 2.17 µM); in assay [2] it was 0.4 µg/mL (≈ 1.08 µM); in the assay with Prot. vulgaris 1028*, 12.5 µg/mL (≈ 33.8 µM); in assay [3] it was 3.1 µg/mL (≈ 8.39 µM). Besides, the MIC in the assay on Staph. aureus 6538 came out at 0.1 µg/mL (≈ 0.271 µM); against Prot. mirabilis 29H, 25 µg/mL (≈ 67.7 µM); against Staph. aureus 887*, 0.2 µg/mL (≈ 0.541 µM); in the assay with Salmonella typh. BA, 0.8 µg/mL (≈ 2.17 µM); in the assay with Strept. faecalis 6 it was 12.5 µg/mL (≈ 33.8 µM); with E. coli 1346, 0.4 µg/mL (≈ 1.08 µM). Moreover, the MIC worked out at 3.1 µg/mL (≈ 8.39 µM) in [4]; 25 µg/mL (≈ 67.7 µM) against Pseudomonas aer. BA*; 0.8 µg/mL (≈ 2.17 µM) in [5]; 0.4 µg/mL (≈ 1.08 µM) in the assay with Klebs. pneumoniae 418*; 25 µg/mL (≈ 67.7 µM) in the assay with Pseudomonas aer. 1559E*; 0.4 µg/mL (≈ 1.08 µM) against E. coli 1527 E*. In the assay with E. coli 25922, this molecule showed an MIC of 0.8 µg/mL (≈ 2.17 µM).

For the molecule `CCO[C@H]1C(S[C@H]2CCNC2)=C(C(=O)O)N2C(=O)[C@H]([C@@H](C)O)[C@@H]12` [Verbindung C, (4R.5S,6S)-4--Aethoxy-6-[(R)-1-hydroxyäthyl]-3-[(S) -3-pyrrolidinyl-thio]-7-oxo-1-azabicyclo[3.2.0]hept-2-en-2-carbonsäure], the MIC is 16 µg/mL (≈ 46.7 µM) against Prot. mirabilis 2117*; 2 µg/mL (≈ 5.84 µM) in the assay on Klebs. aerogenes 1082E*; 1 µg/mL (≈ 2.92 µM) in assay [1]; 1 µg/mL (≈ 2.92 µM) in assay [2]; 32 µg/mL (≈ 93.5 µM) against Prot. vulgaris 1028*; 8 µg/mL (≈ 23.4 µM) in assay [3]. In addition, the MIC turned out to be 0.25 µg/mL (≈ 0.73 µM) against Staph. aureus 6538; 32 µg/mL (≈ 93.5 µM) in the assay on Prot. mirabilis 29H; 0.5 µg/mL (≈ 1.46 µM) in the assay on Staph. aureus 887*; 0.5 µg/mL (≈ 1.46 µM) in the assay on Salmonella typh. BA; 32 µg/mL (≈ 93.5 µM) in the assay on Strept. faecalis 6; 0.5 µg/mL (≈ 1.46 µM) against E. coli 1346. Moreover, the MIC came out at 4 µg/mL (≈ 11.7 µM) in [4]; 32 µg/mL (≈ 93.5 µM) in the assay with Pseudomonas aer. BA*; 1 µg/mL (≈ 2.92 µM) in [5]; 2 µg/mL (≈ 5.84 µM) against Klebs. pneumoniae 418*; 64 µg/mL (≈ 187 µM) with Pseudomonas aer. 1559E*; 0.25 µg/mL (≈ 0.73 µM) with E. coli 1527 E*. For the same molecule, the MIC with E. coli 25922 and in the assay with E. coli TEM 1* was 0.5 µg/mL (≈ 1.46 µM) each time.

As for `CCO[C@H]1C(S[C@H]2CCN(C(C)=N)C2)=C(C(=O)O)N2C(=O)[C@H]([C@@H](C)O)[C@@H]12` [Verbindung D, (4R,5S,6S)-4-Aethoxy-6-[(R)-1--hydroxyäthyl]-3-[[(S)-1-(1-iminoäthyl)-3-pyrrolidinyl]-thio]-7-oxo-1-azabicyclo[3.2.0]hept-2-en-2-carbonsäure], the MIC in the assay with Prot. mirabilis 2117* amounted to 16 µg/mL (≈ 41.7 µM); against Klebs. aerogenes 1082E*, 2 µg/mL (≈ 5.22 µM); in [1], 4 µg/mL (≈ 10.4 µM); in [2], 2 µg/mL (≈ 5.22 µM); against Prot. vulgaris 1028* it was 16 µg/mL (≈ 41.7 µM); in assay [3] it was 8 µg/mL (≈ 20.9 µM). Besides, the MIC in the assay with Staph. aureus 6538 turned out to be 0.25 µg/mL (≈ 0.652 µM); in the assay on Prot. mirabilis 29H, 32 µg/mL (≈ 83.4 µM); against Staph. aureus 887*, 0.5 µg/mL (≈ 1.3 µM); in the assay on Salmonella typh. BA, 2 µg/mL (≈ 5.22 µM); in the assay with Strept. faecalis 6, 32 µg/mL (≈ 83.4 µM); in the assay on E. coli 1346, 1 µg/mL (≈ 2.61 µM). The MIC in assay [4] is 8 µg/mL (≈ 20.9 µM); with Pseudomonas aer. BA* it was 64 µg/mL (≈ 167 µM); in [5] it was 4 µg/mL (≈ 10.4 µM); in the assay with Klebs. pneumoniae 418*, 2 µg/mL (≈ 5.22 µM); with Pseudomonas aer. 1559E* it was 64 µg/mL (≈ 167 µM); with E. coli 1527 E*, 1 µg/mL (≈ 2.61 µM). Moreover, the MIC came to 2 µg/mL (≈ 5.22 µM) against E. coli 25922 and 0.5 µg/mL (≈ 1.3 µM) in the assay on E. coli TEM 1*.
